What was measured:
Type in all cases: cell-based
[1] = tested on: adult bovine articular chondrocytes; assay: Collagenase-cleaved type II collagen (COL2-3/4C ELISA) in bovine chondrocyte pellet culture; details: preliminary studies; denatured 50° C. for 20 min; data not shown
Method: Adult bovine and human articular cartilage was obtained from metacarpophalangeal joints shortly (within 3 hours) after slaughter and from autopsy within 18 hr of death, respectively. Chondroctyes were released from freshly dissected articular cartilage specimens by sequential enzymatic digestion at 37° C. with trypsin and bacterial collagenase as previously described (Aimes, R. T., 1995). […]
The cell pellets and cartilage explant cultured for various times were digested for the extraction of collagenase-generated neoepitope COL2-3/4Cshort (Billinghurst, R. C. et al., (1997) supra) and denatured type II collagen epitope COL2-3/4m and total type II collagen (Hollander, A. P. et al. (1994a) supra), as previously described: Briefly, the harvested pellets were incubated overnight with 1.0 mg/ml α-chymotrypsin at 37° C. to cleave and solubilize denatured collagen leaving the above neoepitope and epitope intact. […] The COL2-3/4Cshort epitope (hereafter referred to as COL2-3/4Cshort) generated by cleavage of type II collagen by collagenase (Billinghurst, R. C. et al. (1997) supra) and intrachain epitope (COL2-3/4m) exposed in denatured type II collagen (Hollander, A. P. et al. (1994a) supra) were measured in α-chymotrypsin extracts by immunoassay. […] The release of the COL2-3/4C epitope into media was also measured by immunoassay. […]

[2] = tested on: bovine articular cartilage explant; assay: Collagenase-cleaved type II collagen (COL2-3/4C) in bovine articular cartilage explant culture; details: 0.1 and 1 μM from day 0; day 12; one way ANOVA
Method: The cartilages were prepared as previously described (Dahlberg, L. et al. (2000) supra. In brief, the cartilage samples were washed three times with basal culture medium containing Dulbecco's modified Eagle's medium (DMEM; Gibco BRL, Life Technologies, Grand Island, N.Y.) with 20 mM HEAPS buffer (pH 7.4) (Gibco BRL), 45 mM NaHCO3, 100 units/ml penicillin, 100 μg/ml streptomycin and 150 μg/ml gentamycin sulphate (Medium A). Full-depth cartilage slices from a single area, around 20 mm×20 mm were cut vertical to the articular surface and then into cubes of approximately 2 mm×2 mm (5-7 cubes were randomly obtained and wet weights about 50-70 mg/well determined).
The cartilage was assigned to 48 well plate (ca 40 mg/well) and kept in Medium A supplemented with 50 μg/ml ascorbic acid, 0.1 mg/bovine serum albumin, 50 μg/ml insulin, 5.0 μg/ml and 5.0 μg/ml sodium DMEM alone at 37° C. in 95% air/5% CO2. The cartilage was precultured for 2 days and medium was changed at day 0. Thereafter medium (as described in pellet cultures) was replaced every four days. Various CNBr fragments and/or synthetic peptides were freshly added from day 0 at each medium change. Thereafter, cartilage explants and conditioned media were harvested and stored at −20° C.
The cell pellets and cartilage explant cultured for various times were digested for the extraction of collagenase-generated neoepitope COL2-3/4Cshort (Billinghurst, R. C. et al., (1997) supra) and denatured type II collagen epitope COL2-3/4m and total type II collagen (Hollander, A. P. et al. (1994a) supra), as previously described: Briefly, the harvested pellets were incubated overnight with 1.0 mg/ml α-chymotrypsin at 37° C. to cleave and solubilize denatured collagen leaving the above neoepitope and epitope intact. After inhibition of α-chymotrypsin activity with N-tosyl-L-phenelalanine-chloromethyl ketone (Sigma), the samples were centrifuged and the supernatants were removed and boiled for 10 min. The COL2-3/4Cshort epitope (hereafter referred to as COL2-3/4Cshort) generated by cleavage of type II collagen by collagenase (Billinghurst, R. C. et al. (1997) supra) and intrachain epitope (COL2-3/4m) exposed in denatured type II collagen (Hollander, A. P. et al. (1994a) supra) were measured in α-chymotrypsin extracts by immunoassay. The COL2-3/4Cshort epitope is detected in an ELISA assay using a rabbit antibody to the carboxyterminal cleavage neoepitope on the TCA piece generated by primary collagenase cleavage of type II collagen. The release of the COL2-3/4C epitope into media was also measured by immunoassay. Total contents in tissue/cells and media was recorded for COL2-3/^4Cshort epitope. The COL2-3/4m epitope was recorded in cells and tissue where it was concentrated. The remaining residues of pellets and explants were digested overnight with 1.0 mg/ml proteinase K at 56° C. to extract the remaining intact type II collagen and then boiled for 10 min to denature the enzyme. Total type II collagen content in the pellets and explant was determined from the collective amount of COL2-3/4m in both the α-chymotrypsin and proteinase K digests.

[3] = tested on: bovine articular cartilage explant; assay: Proteoglycan (GAG) content and release in bovine explant culture; details: 0.1 and 1 μM from day 0
Method: The cartilages were prepared as previously described (Dahlberg, L. et al. (2000) supra. In brief, the cartilage samples were washed three times with basal culture medium containing Dulbecco's modified Eagle's medium (DMEM; Gibco BRL, Life Technologies, Grand Island, N.Y.) with 20 mM HEAPS buffer (pH 7.4) (Gibco BRL), 45 mM NaHCO3, 100 units/ml penicillin, 100 μg/ml streptomycin and 150 μg/ml gentamycin sulphate (Medium A). Full-depth cartilage slices from a single area, around 20 mm×20 mm were cut vertical to the articular surface and then into cubes of approximately 2 mm×2 mm (5-7 cubes were randomly obtained and wet weights about 50-70 mg/well determined). The cartilage was assigned to 48 well plate (ca 40 mg/well) and kept in Medium A supplemented with 50 μg/ml ascorbic acid, 0.1 mg/bovine serum albumin, 50 μg/ml insulin, 5.0 μg/ml and 5.0 μg/ml sodium DMEM alone at 37° C. in 95% air/5% CO2. The cartilage was precultured for 2 days and medium was changed at day 0. Thereafter medium (as described in pellet cultures) was replaced every four days. Various CNBr fragments and/or synthetic peptides were freshly added from day 0 at each medium change. Thereafter, cartilage explants and conditioned media were harvested and stored at −20° C. In order to show the specificity of the peptide fragments of one embodiment on degradation of type II collagen as compared with proteoglycan, primarily aggrecan, sulphated glycosaminoglycan (GAG) content was determined in both the α-chymotrypsin and proteinase K digests for total proteoglycan (predominantly aggrecan) content in cell pellets, cartilage explants and also in conditioned media. Measurement of release of proteoglycan into media was tested using dimethylene blue dye binding as previously described (Dahlberg, L. et al. (2000) supra).

difference between pellet cultures treated with and without denatured type II collagen [1]: no significant difference
COL2-3/4C content in medium and cartilage [2]: no effect
Substance: denatured type II collagen: denatured type II collagen purified from fetal bovine epiphyseal cartilage
GAG-release into culture media [3]: no effect
proteoglycan (GAG) contents [3]: no effect
